The NIST ThermoML archive (doi:10.1021/je050261u)

Assay: xn = mol fraction of the nth substance listed
Details: Liquid, Vibrating tube method

CCCCCCC [heptane] + CCO
mass density [kg/m3]
Details | x2 = 0 | x2 = 0.125 | x2 = 0.25 | x2 = 0.375 | x2 = 0.5 | x2 = 0.625 | x2 = 0.75 | x2 = 0.875
323.15 K, 50000 kPa | – | – | – | – | 727.4 | 738.6 | 753.8 | 774
323.15 K, 55000 kPa | 704.3 | 708.6 | 714 | 721.3 | 730.6 | 741.9 | 757 | 777.2
323.15 K, 60000 kPa | 707.4 | 711.8 | 717.2 | 724.5 | 733.8 | 745.1 | 760.2 | 780.3
323.15 K, 65000 kPa | 710.3 | 714.7 | 720.2 | 727.5 | 736.8 | 748.1 | 763.2 | 783.4
333.15 K, 100 kPa | 649.1 | 652.3 | 657.3 | 664.5 | 673.7 | 685.1 | 700.9 | 722.2
333.15 K, 5000 kPa | 655.2 | 658.4 | 663.4 | 670.7 | 679.9 | 691.2 | 706.8 | 727.9
333.15 K, 10000 kPa | 661 | 664.2 | 669.4 | 676.6 | 685.7 | 697 | 712.4 | 733.4
333.15 K, 15000 kPa | 666.3 | 669.6 | 674.7 | 681.9 | 691.1 | 702.3 | 717.7 | 738.5
333.15 K, 20000 kPa | 670.9 | 674.4 | 679.6 | 686.7 | 696 | 707.1 | 722.5 | 743.2
333.15 K, 25000 kPa | 675.4 | 678.8 | 684.3 | 691.4 | 700.6 | 711.8 | 727 | 747.5
333.15 K, 30000 kPa | 679.7 | 683.1 | 688.7 | 695.7 | 704.9 | 716 | 731.3 | 751.7
333.15 K, 35000 kPa | 683.8 | 687.1 | 692.8 | 699.9 | 709.1 | 720.1 | 735.4 | 755.8
333.15 K, 40000 kPa | 687.6 | 690.9 | 696.6 | 703.8 | 713 | 724 | 739.2 | 759.6
333.15 K, 45000 kPa | 691.3 | 694.6 | 700.4 | 707.5 | 716.7 | 727.7 | 743 | 763.3
333.15 K, 50000 kPa | 694.8 | 698.2 | 704 | 711.2 | 720.3 | 731.4 | 746.6 | 766.8
333.15 K, 55000 kPa | 698.4 | 701.7 | 707.6 | 714.7 | 723.9 | 735 | 750.2 | 770.4
333.15 K, 60000 kPa | 701.5 | 705 | 710.8 | 718 | 727.2 | 738.2 | 753.4 | 773.6
333.15 K, 65000 kPa | 704.7 | 708.1 | 714 | 721.3 | 730.4 | 741.4 | 756.7 | 776.8
